In brackets after ≈: the same amount, converted by molar mass.
Experiments:
[1] = test system: Streptococcus pyogenes; assay: In vivo effective dose against experimental infections in rodent caused by Streptococcus pyogenes C203 when administered sc; format: functional
[2] = test system: Streptococcus pyogenes; assay: In vitro antimicrobial activity against Streptococcus pyogenes C203; format: functional
[3] = test system: Haemophilus influenzae; assay: In vitro antimicrobial activity against Haemophilus influenzae.; format: functional
[4] = test system: Enterococcus faecium; assay: In vitro antimicrobial activity against Streptococcus faecium X66; format: functional, streptococcus fae-cium
[5] = test system: Staphylococcus aureus; assay: In vitro antimicrobial activity against Staphylococcus aureus X1; format: functional
[6] = test system: Staphylococcus epidermidis; assay: In vitro antimicrobial activity against Staphylococcus epidermidis EPI1; format: functional
[7] = test system: Streptococcus pyogenes; assay: In vivo effective dose against experimental infections in rodent caused by Streptococcus pyogenes C203 when administered orally; format: functional; details: po
[8] = test system: Streptococcus pneumoniae; assay: In vitro antimicrobial activity against Streptococcus pneumoniae; format: functional

| Compound | ED50 [1] [mg/kg] | MIC [2] [µg/mL] | MIC [3] [µg/mL] | MIC [4] [µg/mL] | MIC [5] [µg/mL] | MIC [6] [µg/mL] | ED50 [7] [mg/kg] | MIC [8] [µg/mL] |
| --- | --- | --- | --- | --- | --- | --- | --- | --- |
| CC[C@H]1OC(=O)C[C@@H](O)[C@H](C)[C@@H](O[C@@H]2O[C@H](C)[C@@H](O)[C@H](N(C)C)[C@H]2O)[C@@H](CCOc2ccc(OC(C)=O)cc2)C[C@@H](C)C(=O)/C=C/C(C)=C/[C@@H]1CO | > 30 | 1 (≈ 1.36 µM) | 16 (≈ 21.8 µM) | 2 (≈ 2.73 µM) | 1 (≈ 1.36 µM) | 0.5 (≈ 0.681 µM) | > 100 | 0.5 (≈ 0.681 µM) |
| CC[C@H]1OC(=O)C[C@@H](O)[C@H](C)[C@@H](O[C@@H]2O[C@H](C)[C@@H](O[C@H]3C[C@@](C)(O)[C@@H](O)[C@H](C)O3)[C@H](N(C)C)[C@H]2O)[C@@H](CCNCCc2ccccc2)C[C@@H](C)C(=O)/C=C/C(C)=C/[C@@H]1CO[C@@H]1O[C@H](C)[C@@H](O)[C@@H](OC)[C@H]1OC | 9.1 | 1 (≈ 0.979 µM) | 64 (≈ 62.7 µM) | 128 (≈ 125 µM) | 1 (≈ 0.979 µM) | 2 (≈ 1.96 µM) | 76 | 8 (≈ 7.83 µM) |
| CC[C@H]1OC(=O)C[C@@H](O)[C@H](C)[C@@H](O[C@@H]2O[C@H](C)[C@@H](O)[C@H](N(C)C)[C@H]2O)[C@@H](CCO)C[C@@H](C)C(=O)/C=C/C(C)=C/[C@@H]1CO[C@@H]1O[C@H](C)[C@@H](O)[C@@H](O)[C@H]1OC | 8.9 | 2 (≈ 2.63 µM) | 32 (≈ 42.1 µM) | 64 (≈ 84.2 µM) | 8 (≈ 10.5 µM) | 4 (≈ 5.26 µM) | > 100 | 2 (≈ 2.63 µM) |

Source: ChEMBL document CHEMBL1124186, “Synthesis and evaluation of tylosin-related macrolides modified at the aldehyde function: a new series of orally effective antibiotics” (1988)
